According to patent US20070225245A1, “Viral vector driven mutant bacterial cytosine deaminase gene and uses thereof” (priority 1998, published 2007):

Columns and labels:
[1] = system: human pancreatic cancer cells; settings: Uninfected cells; 5-FC at 764 μg/ml
Protocol: To measure the cytotoxicity of 5-FU and 5-FC, glioma cells or pancreatic cancer cells were plated into 96-well tissue culture plates at 5×10^3 cells/well, and allowed to adhere overnight. Next day, serial dilutions of 5-FU or 5-FC were added directly to cells. Cells were incubated for 5 days, and relative cell density was determined using a crystal violet staining assay. Cell culture medium was removed and surviving cells were then fixed and stained with 2% (w/v) crystal violet (Sigma-Aldrich) in 70% ethanol for 3 h at room temperature. The plates were washed extensively, air-dried and optical density was measured at 570 nm using a V Max plate reader (Molecular Devices Corporation, Sunnyvale Calif.). Fractional cell survival at each drug concentration was calculated as the ratio of absorbance at 570 nm of cells incubated in the presence versus absence of drug, corrected for background absorbance of media alone. Fractional cell survival data were plotted against drug concentration and IC50 values extrapolated by piecewise linear regression as the concentration of drug producing a 50% reduction in corrected absorbance.

D54MG xenografts = experiment: Subcutaneous human glioma xenograft model, tumor growth; type: in vivo, athymic nude mice
Protocol: (§1) Treatment was started at the time of established tumor growth (Day 0 equal to 14 days after tumor cell injection). Animals were infected i.t. with 1×10^8 TCID50 AdbCDwt or AdbCD-D314A on Days 0, 7, and 14, and then irradiated with 2 Gy on Days 4, 7 and 10. 5-FC was injected i.p. at 500 mg/kg on Days 0 to 4, 7 to 11, and 14 to 18. Data points represent the mean change in tumor surface area relative to Day 0 for each group of animals.
as §1, with “to 17” for “to 14”, “TCID50” for “TCID50 AdbCDwt or”, “and” for “and then”, “with 5” for “with 2”
To assess anti-tumor effects on established solid tumors, D54MG glioma cells (2×10^7) were injected s.c. into female athymic nude mice. Treatment was started 14 days post-tumor cell injection at the time of established tumor growth (tumors were 6-8 mm in diameter), noted as Day 0. […] Tumor size was monitored twice a week with Vernier calipers. Tumor surface area (length×width in mm^2) was calculated for each group of 10 mice and plotted as a percentage change over time relative to the mean size on Day 0 for each group.

[2] = system: Intracranial U87MG Human Gliomas; experiment: Survival, intracranial glioma, intratumoral Ad and systemic 5-FC; type: in vivo, SCID mice; settings: for Survival 20% / Survival Median: Saline (no virus) + 5-FC
Protocol: (§2) U87MG and D54MG cells (5×10^5) were stereotactically injected into the right frontal cortex of SCID mice. Tumors were established for 5 days before intratumoral injection of AdCMVCD (10^8 or 10^9 pfu/mouse). Mice were then treated IP with 5-FC (500 mg/kg bid) on days 2-9 post infection and monitored for survival. Kaplan-Meier survival curves and median and 20% survival values were calculated by standard methods.
U87MG cells (5×10^5), the stringent glioma model, were stereotactically injected into the right frontal cortex of SCID mice. Tumors were established for 5 days before intratumoral injection of AdE1ACD or AdCMVCD (10^8 or 10^9 pfu/mouse). Mice were then treated IP with 5-FC (500 mg/kg bid) on days 2-9 post infection and monitored for survival. Kaplan-Meier survival curves and median and 20% survival values were calculated by standard methods.

[3] = system: intracranial U251MG gliomas; experiment: as above; type: in vivo, SCID mice; settings: no virus/5-FC
Protocol: as §2
Additional experiments were performed on intracranial tumors derived from all three glioma models. […] Similar results were obtained with SCID mice bearing intracranial U87MG gliomas (AdE1ACD/5-FC 84 days, AdE1ACD/saline 49 days, no virus/5-FC 57 days, p<0.01; Table II and Table 12).

[4] = system: Neuro-2a murine neuroblastoma cells; experiment: HSV replication in vitro, plaque titration on Vero cells; type: cell-based; settings: 50 μM 5-FU in growth medium; first evident at 48 h post-infection
Protocol: M012 replication was compared to R3659 replication over time in murine Neuro-2a tumor cells at both high (5.0) and low (0.1) MOI. Infected cells were grown in either growth medium alone or growth medium containing 5-FC (500 μM) or 5-FU (50 μM) by determining viral titers at 12, 24, 48, 72, and 96 h post-infection in the presence or absence of 500 μM 5-FC or 50 μM 5-FU. Virus recovery at the different time points was determined by titering on Vero cells. Experiments were performed in duplicate. Inhibition was most significant at high MOI, with P=0.002.
To establish replication competence of M012 in murine tumor cell lines in vitro, Neuro-2a murine neuroblastoma cells were infected with either the parent Dg134.5 HSV, R3659, or M012 using a low (0.1) or high (5.0) MOI. To determine if high concentrations of 5-FC might interfere with HSV replication, cells were incubated in the presence of either 500 μM 5-FC or 50 μM 5-FU, or media alone and infected cells were harvested at 12, 24, 48, 72, and 96 h post-infection. Total PFU recovered at each time point was determined by plaque titration on Vero cells (FIG. 9). At both MOI, M012 replication in DMEM alone was similar to its parent virus, R3659. […] The addition of 5-FC to the growth medium following infection inhibited M012 replication, but had no effect on R3659 replication at either MOI. […]

Row | SMILES | cytotoxicity [1] | mean time to tumor doubling (D54MG xenografts; 5-FC alone) | mean time to tumor doubling (D54MG xenografts; 5-FC plus radiation (3×2 Gy)) | Survival 20% ([2]; Table 6) | Survival Median ([2]; Table 6) | Survival 20% ([2]; Table 8) | Survival Median ([2]; Table 8) | Survival 20% ([2]; Table 11) | Survival Median ([2]; Table 11) | median survival ([2]; U87MG, no virus/5-FC) | median survival [3] | reduction in replication of M012 or R3659 [4]
1 | Nc1nc(=O)[nH]cc1F [5-FC, 5-fluorocytosine] | no detectable cytotoxicity | 13 days | 15 days | 61 | 50 | 34 | 34 | 60 | 57 | 57 days | 23 days | –
2 | O=c1[nH]cc(F)c(=O)[nH]1 [5-FU, 5-fluorouracil] | – | – | – | – | – | – | – | – | – | – | – | 1.0-2.0 log
